# Experimental data: patent US12208080B2, “Compositions and methods for modulation of extracellular vesicle release and treatment of neurological disorders” (GEORGE MASON RESEARCH FOUNDATION, INC., priority 2018, dated 2025)
# Columns and labels:
# [1] = system: autophagy proteins (p62, LC3, ATG12-ATG5, ATG12, Beclin-1) in U1 cells; test: Autophagy protein profile, CBD versus autophagy drugs, in U1 cells and their EVs (Western blot); format: cell-based; conditions: 5 days, Rapamycin 50 nM, INK128 50 nM
# Procedure: FIGS. 18A-18B are gels showing CBD promotes autophagy turnover, resulting in a decrease in extracellular autophagosomal secretion. A) U1 cells (1×10^6) were treated±CBD (10 μM) for the following incubation periods: 0, 6, 24, and 48 hours. Cells were pelleted and lysed, exosomes from supernatants were enriched with NT80/82 beads overnight at 4° C. Samples were run through SDS-PAGE and western blotted for autophagy proteins (p62 and LC3), and Actin. B) U1 cells (1×10^6) were treated±10 μM CBD (every day), Rapamycin (50 nM), INK128 (50 nM), Bafilomycin A1 (50 nM), SB 203580 (20 μM), Wortmannin (2 nM) for a 5-day incubation period. Cells were pelleted and lysed, exosomes from supernatants were enriched using NT80/82 beads overnight at 4° C. Samples were run through SDS-PAGE and western blotted for autophagy proteins (p62, LC3, ATG12-ATG5, ATG12, Beclin-1), and Actin.
# FIGS. 21A-21K are graphs showing normalized densitometry analysis of CBD and autophagy drug treatment on HIV-1 infected monocytes. Intracellular (A) p62, (B) LC3 I, (C) LC3 II, (D) ATG12-ATG5 complex, (E) ATG12, and (F) Beclin-1, and extracellular (G) p62, (H) LC3 I, (I) LC3 II, (J) ATG12-ATG5 complex, and (K) Beclin-1 densitometry counts were calculated from the Western blot data in FIG. 5B, normalized to respective intracellular and extracellular Actin levels, and plotted.
# To determine the specific points at which CBD inhibits intracellular and extracellular autophagosome formation and secretion, we compared CBD treatment of U1 monocytes with known inhibitors of different points in the autophagy pathway. Cell viability was assessed among a panel of titrated autophagy drugs and the least toxic concentration per drug was utilized (FIG. 20). We treated U1 cells with CBD (10 μM) every day, Rapamycin (50 nM), INK128 (50 nM), Bafilomycin A1 (50 nM), SB 203580 (20 μM), or Wortmannin (2 nM) for 5 days. Our rationale for using these drugs was that they regulate different steps of autophagy including nucleation inhibition by inhibiting MTOR activity (Rapamycin, INK128) or by inhibiting pre-autophagosomal VPS34 complex activity (Wortmannin, SB 203580), and autophagosome-lysosome fusion inhibition (Bafilomycin A1). Therefore, a side-by-side comparison to CBD would potentially allow for a better definition of which step of autophagosome formation is primarily regulated by CBD. U1 cells were treated with the autophagy regulators and harvested along with their corresponding supernatants for further analysis using Western blot against p62, LC3, ATG12-ATG5 complex, free ATG12, Beclin-1, and Actin. Results in FIG. 18B (intracellular proteins, top panel) show autophagy protein profiles associated with the various autophagy regulators. […] The corresponding supernatants were enriched for EVs and also analyzed for the presence of autophagy proteins.
# [2] = system: HIV-1 infected primary macrophages; test: RT-qPCR of EV-associated viral RNA from HIV-1 infected primary macrophages; format: cell-based; conditions: 1, 5, 10 uM
# Procedure: FIGS. 11A-11B are graphs showing CBD lowers viral RNAs in EVs released from HIV-1 infected primary macrophages. Primary PBMCs were purchased (Precision For Medicine, Frederick, Md.) and cultured in vitro first with PMA/GM-CSF for 3 days to obtain macrophages, and were then infected with HIV-1 89.6 strain (MOI.1.0) for 12 days. The macrophages were treated with PMA and GM-CSF during the infection period (added every 3 days into the fresh media). On day 12, all cells were treated with cART (4 antivirals) and kept in culture for another 3 days. On day 15, media was removed and CBD was added for 5 days (1, 5, 10 μM; at 0 and 48 hours). Supernatants were then isolated and exosomes were enriched using NT80/82 beads overnight at 4° C. […]
# To examine whether the same trend could be observed in a primary cell model, three independent HIV-1 infected primary macrophage cell cultures were treated with a titration of CBD (1, 5, and 10 uM). EVs were enriched from the extracellular supernatant using NT80/82 beads and analyzed for HIV-1 TAR and env (FIG. 11). […] To apply these findings to in vivo HIV-1 infection, total EVs were enriched from plasma samples from 15 individuals; 5 healthy donors, 5 HIV-1 positive donors, and 5 HIV-1 positive donors who used Cannabis, were trapped using NT80/82 particles and analyzed via Western blot for the presence of HIV-1 Nef protein.
# [3] = CBD 10 μM every day, FIG. 18B top panel
# [4] = CBD 10 μM, Bafilomycin A1 50 nM, SB 203580 20 μM, Wortmannin 2 nM, lower panel
smiles,measurement,setting,value
"C=C(C)[C@@H]1CCC(C)=C[C@H]1c1c(O)cc(CCCCC)cc1O [CBD, 2-[1R-3-methyl-6R-(1-methylethenyl)-2-cyclohexen-1-yl]-5-pentyl-1,3-benzenediol]",intracellular ATG12-ATG5,[1]; [3],low levels
same,intracellular Beclin-1,[1]; [3],high levels
same,intracellular LC3 I,[1]; [3],low levels
same,EV-associated LC3 I,[1]; [4],reduction
same,EV-associated p62,[1]; [4],reduction
same,TAR RNA within EVs,"[2]; three primary macrophage cultures, FIG. 11A",statistically significant decrease
same,env RNA in secreted EVs,"[2]; two out of three infected primary macrophages, FIG. 11B",statistically significant decreasing trend
